Assay results from patent US7045631B2, “Substituted 2-thio-3, 5-dicyano-4-phenyl-6-aminopyridines and their use as adenosine receptor-selective ligands” (Bayer Aktiengesellschaft, priority 2001, dated 2006).

Tests used:
[1] = Pharmacokinetic investigations, mouse; type: in vivo, mice; conditions: plasma, po, 1 mg/kg p.o., read-out: Bioavailability following oral administration
Method: (§1) Pharmacokinetic data were determined after administering various substances i.v. or p.o. as solutions to mice, rats and dogs. For this, blood samples were collected up to 24 hours after administration. The concentrations of the unaltered substance were determined by bioanalytical methods (HPLC or HPLC-MS) in the plasma samples which were obtained from the blood samples. Pharmacokinetic parameters were subsequently ascertained from the plasma concentration time courses which had been obtained in this way. The following Table 2 gives the bioavailability in the different species.

[2] = Pharmacokinetic investigations, dog; type: in vivo, dogs; conditions: plasma, po, 1 mg/kg p.o., read-out: Bioavailability following oral administration
Method: as §1

adenosine A2b receptors = molecular target: T1, adenosine A2b receptors (Homo sapiens, UniProt P29275); test: Adenosine agonism indirectly by way of gene expression (luciferase test), A2b cells; type: cell-based; conditions: percent of the maximum stimulation achieved by NECA
T1 construct: expressed in transfected cells; host or cells: CHO (Chinese Hamster Ovary)
T1 sequence (P29275 1-332): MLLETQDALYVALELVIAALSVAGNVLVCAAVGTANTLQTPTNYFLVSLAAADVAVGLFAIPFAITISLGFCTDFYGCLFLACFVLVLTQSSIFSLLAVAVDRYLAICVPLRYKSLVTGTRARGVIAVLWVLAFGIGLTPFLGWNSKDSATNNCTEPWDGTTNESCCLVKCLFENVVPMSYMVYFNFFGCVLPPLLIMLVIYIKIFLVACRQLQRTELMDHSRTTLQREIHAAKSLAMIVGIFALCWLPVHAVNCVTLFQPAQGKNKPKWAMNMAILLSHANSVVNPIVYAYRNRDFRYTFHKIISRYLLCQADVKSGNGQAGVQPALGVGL
Source text: (§2) Cells of the CHO (Chinese Hamster Ovary) permanent cell line are transfected stably with the cDNA for the adenosine receptor subtypes A1, A2a and A2b. The adenosine A1 receptors are coupled to the adenylate cyclase by way of Gi proteins, while the adenosine A2a and A2b receptors are coupled by way of Gs proteins. In correspondence with this, the formation of cAMP in the cell is inhibited or stimulated, respectively. After that, expression of the luciferase is modulated by way of a cAMP-dependent promoter. The luciferase test is optimized, with the aim of high sensitivity and reproducibility, low variance and good suitability for implementation on a robot system, by varying several test parameters, such as cell density, duration of the growth phase and the test incubation, forskolin concentration and medium composition. The following test protocol is used for pharmacologically characterizing cells and for the robot-assisted substance test screening:
(§3) The stock cultures are grown, at 37° C. and under 5% CO2, in DMEM/F12 medium containing 10% FCS (foetal calf serum) and in each case split 1:10 after 2–3 days. The test cultures are seeded in 384-well plates at the rate of from 1 000 to 3 000 cells per well and grown at 37° C. for approx. 48 hours. […] After that, 35 μl of a solution which is composed of 50% lysis reagent (30 mM disodium hydrogenphosphate, 10% glycerol, 3% TritonX100, 25 mM TrisHCl, 2 mM dithiothreitol (DTT), pH 7.8) and 50% luciferase substrate solution (2.5 mM ATP, 0.5 mM luciferin, 0.1 mM coenzyme A, 10 mM tricine, 1.35 mM magnesium sulphate, 15 mM DTT, pH 7.8) are added to the test cultures, the plates are shaken for approx. 1 minute and the luciferase activity is measured using a camera system.
(§4) The table gives the % values of the corresponding reference stimulus. The measured values for the A2a and A2b receptors are values in percent of the maximum stimulation achieved by NECA; the measured values for the A1 receptor are values in percent following direct prestimulation of the adenylate cyclase with 1μ molar forskolin (corresponds to the 100% value).

[3] = Pharmacokinetic investigations, rat; type: in vivo, rats; conditions: plasma, po, 1 mg/kg p.o., read-out: Bioavailability following oral administration
Method: as §1

adenosine A2a receptors = molecular target: T2, adenosine A2a receptors (Homo sapiens, UniProt P29274); test: Adenosine agonism indirectly by way of gene expression (luciferase test), A2a cells; type: cell-based; conditions: percent of the maximum stimulation achieved by NECA
T2 construct: expressed in transfected cells; host or cells: CHO (Chinese Hamster Ovary)
T2 sequence (P29274 whole entry): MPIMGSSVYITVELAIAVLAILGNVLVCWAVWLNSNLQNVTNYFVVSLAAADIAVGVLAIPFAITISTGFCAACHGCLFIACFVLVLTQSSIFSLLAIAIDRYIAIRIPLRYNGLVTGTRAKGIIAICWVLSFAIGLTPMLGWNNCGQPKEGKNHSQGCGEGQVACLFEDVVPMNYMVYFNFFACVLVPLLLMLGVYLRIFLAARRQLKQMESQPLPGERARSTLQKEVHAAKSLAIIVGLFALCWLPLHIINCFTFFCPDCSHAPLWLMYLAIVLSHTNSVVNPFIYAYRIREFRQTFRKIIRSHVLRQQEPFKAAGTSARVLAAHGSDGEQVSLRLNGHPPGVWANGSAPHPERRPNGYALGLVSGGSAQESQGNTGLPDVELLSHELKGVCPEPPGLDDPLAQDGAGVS
Source text: as §2, §3, §4

adenosine A1 receptors = molecular target: T3, adenosine A1 receptors (Homo sapiens, UniProt P30542); test: Adenosine agonism indirectly by way of gene expression (luciferase test), A1 cells; type: cell-based; conditions: percent following prestimulation of adenylate cyclase with 1 μ molar forskolin (=100%), agonists give <100%
T3 construct: expressed in transfected cells; host or cells: CHO (Chinese Hamster Ovary)
T3 sequence (P30542 1-326): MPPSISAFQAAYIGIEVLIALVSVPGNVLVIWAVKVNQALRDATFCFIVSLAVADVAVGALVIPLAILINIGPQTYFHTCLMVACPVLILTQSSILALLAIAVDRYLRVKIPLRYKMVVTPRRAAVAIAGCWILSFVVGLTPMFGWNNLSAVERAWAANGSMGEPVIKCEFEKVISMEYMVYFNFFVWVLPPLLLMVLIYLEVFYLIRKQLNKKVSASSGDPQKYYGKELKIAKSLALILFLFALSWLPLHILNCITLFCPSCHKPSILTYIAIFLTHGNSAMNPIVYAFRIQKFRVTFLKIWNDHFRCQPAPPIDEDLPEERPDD
Source text: as §2, §3, §4

- bioavailability [1]: 22.1%
- bioavailability [2]: 48.2%
- Stimulation of adenosine receptors, A2b, % of the reference stimulus (adenosine A2b receptors; 0.3 nmol compound): 29%
- Stimulation of adenosine receptors, A2b, % of the reference stimulus (adenosine A2b receptors; 1 nmol compound): 64%
- Stimulation of adenosine receptors, A2b, % of the reference stimulus (adenosine A2b receptors; 10 nmol compound): 88%
- bioavailability [3]: 4.6%
- Stimulation of adenosine receptors, A2a, % of the reference stimulus (adenosine A2a receptors; 0.3 nmol compound): 1%
- Stimulation of adenosine receptors, A2a, % of the reference stimulus (adenosine A2a receptors; 1 nmol compound): 24%
- Stimulation of adenosine receptors, A2a, % of the reference stimulus (adenosine A2a receptors; 10 nmol compound): 57%
- Stimulation of adenosine receptors, A1, % of the reference stimulus (adenosine A1 receptors; 0.3 nmol compound): 44%
- Stimulation of adenosine receptors, A1, % of the reference stimulus (adenosine A1 receptors; 1 nmol compound): 9%
- Stimulation of adenosine receptors, A1, % of the reference stimulus (adenosine A1 receptors; 10 nmol compound): 5%
SMILES: CC(=O)Nc1ccc(-c2c(C#N)c(N)nc(SCc3ccccn3)c2C#N)cc1 [Example 1, N-(4-{2-Amino-3,5-dicyano-6-[(2-pyridinylmethyl)sulphanyl]-4-pyridinyl}-phenyl)acetamide]
